Data: patent publication US5840684A, “Glycopeptide antibiotic derivatives” (Eli Lilly and Company, priority 1995, dated 1998)
Values after ≈ are worked out from the molar mass of the structure shown.

How the values were obtained:
[1] = system: Staphylococcus aureus S13E; type: cell-based
Protocol: (§1) The MIC's were determined using a standard broth micro-dilution assay.

[2] = system: Staphylococcus aureus SA1199B; type: cell-based
Protocol: as §1

[3] = system: Entercoccus faecium 180-1; experiment: broth micro-dilution MIC; type: cell-based
Protocol: as §1

Entercoccus faecium 276 = experiment: broth micro-dilution MIC; type: cell-based
Protocol: as §1

[4] = system: Staphylococcus aureus 446; experiment: broth micro-dilution MIC; type: cell-based
Protocol: as §1

[5] = system: Staphylococcus aureus 447; experiment: broth micro-dilution MIC; type: cell-based
Protocol: as §1

[6] = system: Staphylococcus aureus SA1199A; experiment: broth micro-dilution MIC; type: cell-based
Protocol: as §1

[7] = system: Staphylococcus aureus SA1199; experiment: broth micro-dilution MIC; type: cell-based
Protocol: as §1

[8] = system: Staphylococcus aureus X778; experiment: broth micro-dilution MIC; type: cell-based
Protocol: as §1

Entercoccus faecium 180 = experiment: broth micro-dilution MIC; type: cell-based; conditions: Entercoccus faecium 180
Protocol: (§2) The formula I compounds have in vitro and in vivo activity against Gram-positive pathogenic bacteria. The MIC's were determined using a standard broth micro-dilution assay.

Entercoccus faecium 2041 = experiment: broth micro-dilution MIC; type: cell-based; conditions: Entercoccus faecium 2041
Protocol: as §2

[9] = system: Enterococcus gallinarum 245; experiment: broth micro-dilution MIC; type: cell-based; conditions: Enterococcus gallinarum 245
Protocol: as §2

[10] = system: Staphylococcus epidermidis 270; experiment: broth micro-dilution MIC; type: cell-based
Protocol: as §2

[11] = system: Staphylococcus haemolyticus 415; experiment: broth micro-dilution MIC; type: cell-based
Protocol: as §2

[12] = system: Streptococcus pneumoniae P1; experiment: broth micro-dilution MIC; type: cell-based
Protocol: as §2

[13] = system: vancomycin-resistant enterococci; experiment: broth micro-dilution, mean geometric MIC; type: cell-based, Enterococcus faecium and Enterococcus faecalis; conditions: enterococci, 24-hour incubation
[14] = system: vancomycin-susceptible enterococci; experiment: broth micro-dilution, mean geometric MIC; type: cell-based, Enterococcus faecium and Enterococcus faecalis; conditions: enterococci, 24-hour incubation
[15] = system: Staphylococcus aureus 489; experiment: broth micro-dilution MIC; type: cell-based
Protocol: as §1

[16] = system: Staphylococcus aureus X400; experiment: broth micro-dilution MIC; type: cell-based
Protocol: as §1

[17] = system: Staphylococcus haemolyticus 105; experiment: broth micro-dilution MIC; type: cell-based
Protocol: as §2

[18] = system: Streptococcus pyogenes C203; experiment: broth micro-dilution MIC; type: cell-based
Protocol: as §1

Structure (SMILES)	MIC [1]	MIC [2]	MIC [3]	MIC (Entercoccus faecium 276)	MIC [4]	MIC [5]	MIC [6]	MIC [7]	MIC [8]	MIC (Entercoccus faecium 180)	MIC (Entercoccus faecium 2041)	MIC [9]	MIC [10]	MIC [11]	MIC [12]	mean geometric MIC, Vancomycin Resistant Strains [13]	mean geometric MIC, Vancomycin Sensitive Strains [14]	MIC [16]	MIC [17]	MIC [18]	other results
CNC(CC(C)C)C(=O)NC1C(=O)NC(CC(N)=O)C(=O)NC2C(=O)NC3C(=O)NC(C(=O)NC(C(=O)O)c4cc(O)cc(O)c4-c4cc3ccc4O)C(OC3CC(C)(N)C(O)C(C)O3)c3ccc(c(Cl)c3)Oc3cc2cc(c3OC2OC(CO)C(O)C(O)C2OC2CC(C)(NCc3ccc4cc(OC)ccc4c3)C(O)C(C)O2)Oc2ccc(cc2Cl)C1O (stereo not shown) [Compound 65]	0.5 µg/mL (≈ 0.284 µM)	2 µg/mL (≈ 1.13 µM)	≤ 0.06 µg/mL	0.5 µg/mL (≈ 0.284 µM)	2 µg/mL (≈ 1.13 µM)	1 µg/mL (≈ 0.567 µM)	≤ 0.06 µg/mL	0.5 µg/mL (≈ 0.284 µM)	0.5 µg/mL (≈ 0.284 µM)	0.5 µg/mL (≈ 0.284 µM)	≤ 0.06 µg/mL	4 µg/mL (≈ 2.27 µM)	1 µg/mL (≈ 0.567 µM)	4 µg/mL (≈ 2.27 µM)	≤ 0.06 µg/mL	2.4 µg/mL	0.20 µg/mL	–	–	–	–
CNC(CC(C)C)C(=O)NC1C(=O)NC(CC(N)=O)C(=O)NC2C(=O)NC3C(=O)NC(C(=O)NC(C(=O)O)c4cc(O)cc(O)c4-c4cc3ccc4O)C(OC3CC(C)(N)C(O)C(C)O3)c3ccc(c(Cl)c3)Oc3cc2cc(c3OC2OC(CO)C(O)C(O)C2OC2CC(C)(NCc3cc(C)cs3)C(O)C(C)O2)Oc2ccc(cc2Cl)C1O (stereo not shown) [Compound 66]	≤ 0.06 µg/mL	–	≤ 0.06 µg/mL	≤ 0.06 µg/mL	–	1 µg/mL (≈ 0.587 µM)	≤ 0.06 µg/mL	–	≤ 0.06 µg/mL	2 µg/mL (≈ 1.17 µM)	≤ 0.06 µg/mL	8 µg/mL (≈ 4.7 µM)	1 µg/mL (≈ 0.587 µM)	8 µg/mL (≈ 4.7 µM)	≤ 0.06 µg/mL	16 µg/mL	0.76 µg/mL	–	–	–	MIC [15]: 1 µg/mL (≈ 0.587 µM)
CNC(CC(C)C)C(=O)NC1C(=O)NC(CC(N)=O)C(=O)NC2C(=O)NC3C(=O)NC(C(=O)NC(C(=O)O)c4cc(O)cc(O)c4-c4cc3ccc4O)C(OC3CC(C)(N)C(O)C(C)O3)c3ccc(c(Cl)c3)Oc3cc2cc(c3OC2OC(CO)C(O)C(O)C2OC2CC(C)(NCCc3ccc(OCc4ccccc4)cc3)C(O)C(C)O2)Oc2ccc(cc2Cl)C1O (stereo not shown) [Compound 68]	≤ 0.06 µg/mL	0.5 µg/mL (≈ 0.277 µM)	≤ 0.06 µg/mL	≤ 0.06 µg/mL	–	–	≤ 0.06 µg/mL	≤ 0.06 µg/mL	≤ 0.06 µg/mL	2 µg/mL (≈ 1.11 µM)	≤ 0.06 µg/mL	4 µg/mL (≈ 2.22 µM)	2 µg/mL (≈ 1.11 µM)	4 µg/mL (≈ 2.22 µM)	–	6.7 µg/mL	–	≤ 0.06 µg/mL	2 µg/mL (≈ 1.11 µM)	–	–
CNC(CC(C)C)C(=O)NC1C(=O)NC(CC(N)=O)C(=O)NC2C(=O)NC3C(=O)NC(C(=O)NC(C(=O)O)c4cc(O)cc(O)c4-c4cc3ccc4O)C(OC3CC(C)(N)C(O)C(C)O3)c3ccc(c(Cl)c3)Oc3cc2cc(c3OC2OC(CO)C(O)C(O)C2OC2CC(C)(NCc3cccc(OC(=O)c4ccccc4)c3)C(O)C(C)O2)Oc2ccc(cc2Cl)C1O (stereo not shown) [Compound 162]	≤ 0.06 µg/mL	≤ 0.06 µg/mL	≤ 0.06 µg/mL	≤ 0.06 µg/mL	0.5 µg/mL (≈ 0.277 µM)	≤ 0.06 µg/mL	≤ 0.06 µg/mL	≤ 0.06 µg/mL	≤ 0.06 µg/mL	≤ 0.06 µg/mL	≤ 0.06 µg/mL	2 µg/mL (≈ 1.11 µM)	≤ 0.06 µg/mL	2 µg/mL (≈ 1.11 µM)	≤ 0.06 µg/mL	4.8 µg/mL	0.12 µg/mL	≤ 0.06 µg/mL	–	≤ 0.06 µg/mL	–
CNC(CC(C)C)C(=O)NC1C(=O)NC(CC(N)=O)C(=O)NC2C(=O)NC3C(=O)NC(C(=O)NC(C(=O)O)c4cc(O)cc(O)c4-c4cc3ccc4O)C(OC3CC(C)(N)C(O)C(C)O3)c3ccc(c(Cl)c3)Oc3cc2cc(c3OC2OC(CO)C(O)C(O)C2OC2CC(C)(NCc3cc(-c4ccccc4)ccc3O)C(O)C(C)O2)Oc2ccc(cc2Cl)C1O (stereo not shown) [Compound 85]	0.5 µg/mL (≈ 0.282 µM)	1 µg/mL (≈ 0.563 µM)	≤ 0.06 µg/mL	–	–	–	≤ 0.06 µg/mL	0.5 µg/mL (≈ 0.282 µM)	–	≤ 0.06 µg/mL	≤ 0.06 µg/mL	2 µg/mL (≈ 1.13 µM)	0.5 µg/mL (≈ 0.282 µM)	2 µg/mL (≈ 1.13 µM)	≤ 0.06 µg/mL	3.4 µg/mL	0.11 µg/mL	–	1 µg/mL (≈ 0.563 µM)	≤ 0.06 µg/mL	–
CNC(CC(C)C)C(=O)NC1C(=O)NC(CC(N)=O)C(=O)NC2C(=O)NC3C(=O)NC(C(=O)NC(C(=O)O)c4cc(O)cc(O)c4-c4cc3ccc4O)C(OC3CC(C)(N)C(O)C(C)O3)c3ccc(c(Cl)c3)Oc3cc2cc(c3OC2OC(CO)C(O)C(O)C2OC2CC(C)(NCc3ccc(N4CCCCC4C)cc3)C(O)C(C)O2)Oc2ccc(cc2Cl)C1O (stereo not shown) [Compound 135]	1 µg/mL (≈ 0.562 µM)	–	≤ 0.06 µg/mL	0.5 µg/mL (≈ 0.281 µM)	1 µg/mL (≈ 0.562 µM)	1 µg/mL (≈ 0.562 µM)	≤ 0.06 µg/mL	1 µg/mL (≈ 0.562 µM)	1 µg/mL (≈ 0.562 µM)	1 µg/mL (≈ 0.562 µM)	–	2 µg/mL (≈ 1.12 µM)	0.5 µg/mL (≈ 0.281 µM)	2 µg/mL (≈ 1.12 µM)	≤ 0.06 µg/mL	4.8 µg/mL	0.22 µg/mL	≤ 0.06 µg/mL	0.5 µg/mL (≈ 0.281 µM)	≤ 0.06 µg/mL	–
CNC(CC(C)C)C(=O)NC1C(=O)NC(CC(N)=O)C(=O)NC2C(=O)NC3C(=O)NC(C(=O)NC(C(=O)O)c4cc(O)cc(O)c4-c4cc3ccc4O)C(OC3CC(C)(N)C(O)C(C)O3)c3ccc(c(Cl)c3)Oc3cc2cc(c3OC2OC(CO)C(O)C(O)C2OC2CC(C)(NCc3ccc(S(=O)(=O)c4ccc(Cl)cc4)cc3)C(O)C(C)O2)Oc2ccc(cc2Cl)C1O (stereo not shown) [Compound 148]	1 µg/mL (≈ 0.538 µM)	0.5 µg/mL (≈ 0.269 µM)	≤ 0.06 µg/mL	≤ 0.06 µg/mL	1 µg/mL (≈ 0.538 µM)	1 µg/mL (≈ 0.538 µM)	≤ 0.06 µg/mL	2 µg/mL (≈ 1.08 µM)	2 µg/mL (≈ 1.08 µM)	–	≤ 0.06 µg/mL	2 µg/mL (≈ 1.08 µM)	0.5 µg/mL (≈ 0.269 µM)	2 µg/mL (≈ 1.08 µM)	≤ 0.06 µg/mL	0.15 µg/mL	0.052 µg/mL	≤ 0.06 µg/mL	1 µg/mL (≈ 0.538 µM)	≤ 0.06 µg/mL	–
